This is an account of results in patent US20160022556A1, “1,5-ANHYDRO-D-GLUCITOL-CONTAINING COLLAGEN PRODUCTION ACCELERATOR” (NATIONAL UNIVERSITY CORPORATION UNIVERSITY OF TOYOMA, priority 2013, published 2016).

Experiment [1] concerns skin surface of human. The experiment is described as follows: Moisturizing effect: water content of skin surface in short-term use test of human volunteers (SKICON200). The note with it: for Water Content of Skin Surface, Mean (%) SD, relative value where the initial value was defined as 100%: 2.5 μL/cm^2, medial part of forearm, n = 4. Format: in vivo. Here is the method:
The moisturizing effects of the 1,5-AG are evaluated by a short-term use test of human volunteers. Specifically, with 5 males of ages of 26 to 34 as test individuals, an aqueous solution of a sample listed in Table 2 in a given concentration was applied in an amount of 2.5 μL/cm^2 at a medial part of forearm, and the water content of the skin surface was measured in accordance with the following method.
<Measurement of Water Content of Skin Surface>
Each test individual washed his medial part of forearm with a given detergent, and was conditioned for 15 minutes in a thermohygrostat (room temperature: 22° C., humidity: 45%). Thereafter, an initial value of the water content of the skin surface was measured with SKICON200 (manufactured by I.B.S. Co., Ltd., corneometer). Next, each of the test samples and purified water were coated according to a coating method. Further, uncoated sites were set. Water contents were measured immediately after the sample coating, after 15 minutes, after 30 minutes, and after 45 minutes. The water content of the uncoated sites was measured matching the measurement time at the sample-coated sites. The change in the water contents of each site to be tested was expressed in a relative value where an initial value was defined as 100%. The difference in the water content of skin surface in each test individual before and after the use of test samples was subjected to a significance test according to a Student-t test. The data for test individuals of which water contents of skin surface of the uncoated sites increased with passage of time were discarded as abnormal values, and the results calculated using the measurement values of four individuals are shown in Table 2 and FIG. 2.

For experiment [2], the system named is normal human fibroblasts. The experiment is described as follows: Type I collagen synthesis of normal human fibroblasts (ELISA of culture supernatant; protein by BCA method). In kind it is cell-based. The note with it: for Type I Collagen, Mean S.D.: 24-hour culture, n = 6, untreated control 7.03 ± 0.25. Here is the method:
The action of 1,5-AG on the synthesis of type I collagen of dermal fibroblasts is evaluated. Specifically, normal human fibroblasts were spread on a 96-well microplate using Dulbecco's modified eagle medium (DMEM) containing 0.5% fetal bovine serum (FBS). The fibroblasts were cultured at 37° C. for 24 hours, and thereafter the medium was exchanged with a 0.5% FBS-containing DMEM containing a given concentration of samples. As a positive control (P.C.), the same treatment was carried out with magnesium ascorbyl phosphate. After the 24-hour culture in the sample-containing medium, the culture supernatant was collected and subjected to ELISA. Also, the amount of protein was measured in accordance with bicinchoninic acid (BCA) method with PIERCE (manufactured by Pierce Biotechnology Inc.).
The culture supernatant and the collagen solutions for calibration curve were each dispensed in each well of high-adsorbent ELISA plate, and allowed to coat at 4° C. over one day and night. Thereafter, the coated plate was blocked at 37° C. for 1 hour with a 1% bovine serum albumin (BSA) solution. The primary antibody reaction was carried out by diluting Anti-Human Collagen Type I antibody (manufactured by Bio-Rad Laboratories, Inc., Rabbit) with a 0.3% BSA solution, and the dilution was added to each well and allowed to react at 37° C. for 1 hour. The secondary antibody reaction was carried out by diluting Histofine MAX-PO® (manufactured by NICHIREI, Rabbit) with a phosphate buffer, and the dilution was added to each well, and allowed to react at 37° C. for 1 hour. Next, 0.3 mg/mL of phosphate-citrate buffer (0.1 M, pH 4.0) containing 2,2′-azinobis(3-ethylbenzothiazoline-6-sulfonic acid)diammonium salt (ABTS) and a 0.03% hydrogen peroxide was added to each well and allowed to react for 20 minutes, and the absorbance of the reaction mixture was measured at 405 nm with a microplate reader.
The amount of the collagen in the culture supernatant was calculated from the calibration curve prepared from commercially available collagen. By dividing the amount of collagen in the medium by the amount of proteins in all the cells, the amount of collagen synthesized per unit protein amount was calculated. The amount of collagen synthesized at each concentration was subjected to a significance test using a Student-t test, and a difference with an untreated control was evaluated.
(ELISA stands for enzyme-linked immunosorbent assay.)

On to `OC[C@H]1OC[C@H](O)[C@@H](O)[C@@H]1O` [1,5-AG, 1,5-anhydro-D-glucitol], for which the “Water Content of Skin Surface, Mean (%) SD, relative value where the initial value was defined as 100%” value in experiment [1] (2% aqueous solution, After 15 min) is 154.2 ± 12.3%; in experiment [1] (2% aqueous solution, After 30 min), 180.3 ± 36.2%; in experiment [1] (2% aqueous solution, After 45 min), 176.7 ± 15.8%; in experiment [1] (2% aqueous solution, Immediately after Coating), 2,535.4 ± 749.6%. Also, in experiment [1] (test sample of 2% 1,5-AG, human volunteers), the “action on the water content of skin surface (moisturizing property)” value is listed as “action of increasing the water content of skin surface”. The “Type I Collagen, Mean S.D.” value in experiment [2] (313 μg/mL sample) is 7.81 ± 0.60 ng/μg protein; in experiment [2] (625 μg/mL sample) it was 8.28 ± 0.50 ng/μg protein; in experiment [2] (1250 μg/mL sample) it was 8.31 ± 0.49 ng/μg protein. Moreover, the “amount of type I collagen synthesized in the normal human fibroblasts” value in experiment [2] (versus untreated control, Student-t test) is “significantly increased”.

Turning to Sodium Hyaluronate [reference compound], the “Water Content of Skin Surface, Mean (%) SD, relative value where the initial value was defined as 100%” value was 122.6 ± 15.7% in experiment [1] (1% aqueous solution, After 15 min); 116.9 ± 23.7% in experiment [1] (1% aqueous solution, After 30 min); 130.1 ± 10.3% in experiment [1] (1% aqueous solution, After 45 min); 3,101.8 ± 1,716.3% in experiment [1] (1% aqueous solution, Immediately after Coating).
